Holding throughout (type): cell-based
One experiment concerns E. coli ESBL4 CTX-M-15. Put plainly: Broth microdilution MIC, E. coli ESBL4. To be noted: Escherichia coli, ESBL4CTXM15; fixed ceftazidime 4 μg/mL, CAMHB, 16-20 hours 37° C.; read-out: MIC of exemplary compounds in presence of fixed β-lactams, Fixed CAZ, E. coli ESBL4 CTX-M-15. In short, it runs like this:
(§1)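 Broth microdilution in cation-adjusted Mueller Hinton broth per CLSI; test compound 2-fold serial dilutions, 32 to 0.25 μg/ml final, with a beta-lactam at fixed 4 μg/ml final. Strains grown 3-5 h before inoculation. Incubation 16-20 h at 37° C; MIC of test compound read visually.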

A further experiment deals with E. cl 144200 p99 AmpC. Put plainly: Broth microdilution MIC, E. cloacae 144200. To be noted: Enterobacter cloacae; fixed ceftazidime 4 μg/mL, CAMHB, 16-20 hours 37° C.; read-out: MIC of exemplary compounds in presence of fixed β-lactams, Fixed CAZ, E. cl 144200 p99 AmpC. Put shortly:
as §1
A general note: Broth dilution looks for growth in wells or tubes with falling amounts of substance.

For another experiment, the system named is K.P. 156319 KPC-3. The experiment in a line: Broth microdilution MIC, K. pneumoniae 156319. Particulars: Klebsiella pneumoniae; fixed meropenem 4 μg/mL, CAMHB, 16-20 hours 37° C.; read-out: MIC of exemplary compounds in presence of fixed β-lactams, Fixed Mero, K.P. 156319 KPC-3.
The test system of a further experiment is P. aerug. Ps296 VIM-2. Put plainly: Broth microdilution MIC, P. aeruginosa Ps296. To be noted: Pseudomonas aeruginosa; fixed meropenem 4 μg/mL, CAMHB, 16-20 hours 37° C.; read-out: MIC of exemplary compounds in presence of fixed β-lactams, Fixed Mero, P. aerug. Ps296 VIM-2. In short, it runs like this:
as §1

Another experiment relates to K.P. A-1797 KPC-2 VIM-4. The experiment in a line: Broth microdilution MIC, K. pneumoniae A-1797. Particulars: Klebsiella pneumoniae; fixed meropenem 4 μg/mL, CAMHB, 16-20 hours 37° C.; read-out: MIC of exemplary compounds in presence of fixed β-lactams, Fixed Mero, K.P. A-1797 KPC-2 VIM-4.
For a further experiment, the system named is S. aureus MSSA-7 PC-1. The experiment in a line: Broth microdilution MIC, S. aureus MSSA-7. Particulars: Staphylococcus aureus, fixed piperacillin 4 μg/mL, CAMHB, 16-20 hours 37° C., read-out: MIC of exemplary compounds in presence of fixed β-lactams, Fixed Pip, S. aureus MSSA-7 PC-1.

Each structure is given as a SMILES string. Some results are limits rather than exact numbers.

Turning to `CN(CCN)[C@H]1CC[C@H](CC(=O)N[C@H]2Cc3cccc(C(=O)O)c3OB2O)CC1` [Example 63, (R)-3-(2-(trans-4-((2-aminoethyl)(methyl)amino)cyclohexyl)acetamido)-2-hydroxy-3,4-dihydro-2H-benzo[e][1,2]oxaborinine-8-carboxylic acid], the minimal inhibitory concentration (MIC) in the experiment on E. coli ESBL4 CTX-M-15, with E. cl 144200 p99 AmpC, with K.P. 156319 KPC-3, with P. aerug. Ps296 VIM-2, in the experiment on K.P. A-1797 KPC-2 VIM-4 and in the experiment with S. aureus MSSA-7 PC-1 was under 4 µg/mL throughout.

As for `CNCCN[C@H]1CC[C@H](C(CO)C(=O)N[C@H]2Cc3cccc(C(=O)O)c3OB2O)CC1` (stereo partly drawn) [Example 64, (R)-2-hydroxy-3-(3-hydroxy-2-(trans-4-(2-(methylamino)ethylamino)cyclohexyl)propanamido)-3,4-dihydro-2H-benzo[e][1,2]oxaborinine-8-carboxylic acid], the MIC in the experiment with E. coli ESBL4 CTX-M-15, with E. cl 144200 p99 AmpC, in the experiment on K.P. 156319 KPC-3, in the experiment on P. aerug. Ps296 VIM-2, with K.P. A-1797 KPC-2 VIM-4 and in the experiment on S. aureus MSSA-7 PC-1 was under 4 µg/mL in each case.

For `N[C@@H](CO)CN[C@H]1CC[C@H](CC(=O)N[C@H]2Cc3cccc(C(=O)O)c3OB2O)CC1` [Example 65, (R)-3-(2-(trans-4-((R)-2-amino-3-hydroxypropylamino)cyclohexyl)acetamido)-2-hydroxy-3,4-dihydro-2H-benzol[e][1,2]oxaborinine-8-carboxylic acid], the MIC (in general, the smallest concentration in the dilution series that meets the test's criterion for growth inhibition) in the experiment with E. coli ESBL4 CTX-M-15 was under 4 µg/mL; in the experiment on E. cl 144200 p99 AmpC, under 4 µg/mL; with K.P. 156319 KPC-3, under 4 µg/mL; in the experiment on P. aerug. Ps296 VIM-2, 8 to 32 µg/mL; with K.P. A-1797 KPC-2 VIM-4, under 4 µg/mL; with S. aureus MSSA-7 PC-1, under 4 µg/mL.

With `CSCCN[C@H]1CC[C@H](CC(=O)N[C@H]2Cc3cccc(C(=O)O)c3OB2O)CC1` [Example 66, (R)-2-hydroxy-3-(2-(trans-4-(2-(methylthio)ethylamino)cyclohexyl)acetamido)-3,4-dihydro-2H-benzo[e][1,2]oxaborinine-8-carboxylic acid], the MIC in the experiment on E. coli ESBL4 CTX-M-15 was under 4 µg/mL; in the experiment on E. cl 144200 p99 AmpC, under 4 µg/mL; with K.P. 156319 KPC-3 it was under 4 µg/mL; in the experiment with P. aerug. Ps296 VIM-2, 8 to 32 µg/mL; in the experiment with K.P. A-1797 KPC-2 VIM-4, 8 to 32 µg/mL; with S. aureus MSSA-7 PC-1, under 4 µg/mL.

As to `N[C@H](CO)CN[C@H]1CC[C@H](CC(=O)N[C@H]2Cc3cccc(C(=O)O)c3OB2O)CC1` [Example 67, (R)-3-(2-(trans-4-((S)-2-amino-3-hydroxypropylamino)cyclohexyl)acetamido)-2-hydroxy-3,4-dihydro-2H-benzol[e][1,2]oxaborinine-8-carboxylic acid], the MIC in the experiment with E. coli ESBL4 CTX-M-15, with E. cl 144200 p99 AmpC, with K.P. 156319 KPC-3, in the experiment on P. aerug. Ps296 VIM-2, with K.P. A-1797 KPC-2 VIM-4 and in the experiment on S. aureus MSSA-7 PC-1 was under 4 µg/mL throughout.

Regarding `NCC(=O)N[C@H]1CC[C@H](CC(=O)N[C@H]2Cc3cccc(C(=O)O)c3OB2O)CC1` [Example 68, (R)-3-(2-(trans-4-(2-aminoacetamido)cyclohexyl)acetamido)-2-hydroxy-3,4-dihydro-2H-benzol[e][1,2]oxaborinine-8-carboxylic acid], the MIC is under 4 µg/mL in the experiment on E. coli ESBL4 CTX-M-15; under 4 µg/mL in the experiment on E. cl 144200 p99 AmpC; under 4 µg/mL with K.P. 156319 KPC-3; 8 to 32 µg/mL in the experiment on P. aerug. Ps296 VIM-2; 8 to 32 µg/mL in the experiment with K.P. A-1797 KPC-2 VIM-4; under 4 µg/mL in the experiment on S. aureus MSSA-7 PC-1.

As to `O=C(C[C@H]1CC[C@H](N(Cc2ncc[nH]2)Cc2ncc[nH]2)CC1)N[C@H]1Cc2cccc(C(=O)O)c2OB1O` [Example 69, (R)-3-(2-(trans-4-(bis((1H-imidazol-2-yl)methyl)amino)cyclohexyl)acetamido)-2-hydroxy-3,4-dihydro-2H-benzo[e][1,2]oxaborinine-8-carboxylic acid], the MIC in the experiment with E. coli ESBL4 CTX-M-15 is under 4 µg/mL; with E. cl 144200 p99 AmpC it was under 4 µg/mL; in the experiment with K.P. 156319 KPC-3, under 4 µg/mL; in the experiment with P. aerug. Ps296 VIM-2, under 4 µg/mL; in the experiment with K.P. A-1797 KPC-2 VIM-4, over 32 µg/mL; with S. aureus MSSA-7 PC-1 it was under 4 µg/mL.

On to `O=C(C[C@H]1CC[C@H](NCc2cnc[nH]2)CC1)N[C@H]1Cc2cccc(C(=O)O)c2OB1O` [Example 70, (R)-3-(2-(trans-4-((1H-imidazol-5-yl)methylamino)cyclohexyl)acetamido)-2-hydroxy-3,4-dihydro-2H-benzo[e][1,2]oxaborinine-8-carboxylic acid], for which the minimum inhibitory concentration (MIC) in the experiment with E. coli ESBL4 CTX-M-15 is under 4 µg/mL; with E. cl 144200 p99 AmpC, under 4 µg/mL; with K.P. 156319 KPC-3 it was under 4 µg/mL; in the experiment on P. aerug. Ps296 VIM-2, under 4 µg/mL; with K.P. A-1797 KPC-2 VIM-4, 8 to 32 µg/mL; in the experiment on S. aureus MSSA-7 PC-1 it was under 4 µg/mL.

With `CC(C)NCCN[C@H]1CC[C@H](CC(=O)N[C@H]2Cc3cccc(C(=O)O)c3OB2O)CC1` [Example 71, (R)-2-hydroxy-3-(2-(trans-4-(2-(isopropylamino)ethylamino)cyclohexyl)acetamido)-3,4-dihydro-2H-benzo[e][1,2]oxaborinine-8-carboxylic acid], the MIC with E. coli ESBL4 CTX-M-15, in the experiment with E. cl 144200 p99 AmpC, with K.P. 156319 KPC-3, with P. aerug. Ps296 VIM-2, in the experiment on K.P. A-1797 KPC-2 VIM-4 and in the experiment on S. aureus MSSA-7 PC-1 was under 4 µg/mL in each case.

On to `O=C(C[C@H]1CC[C@H](NCCNc2ncccn2)CC1)N[C@H]1Cc2cccc(C(=O)O)c2OB1O` [Example 72], for which the MIC in the experiment on E. coli ESBL4 CTX-M-15 was under 4 µg/mL; with E. cl 144200 p99 AmpC, under 4 µg/mL; with K.P. 156319 KPC-3 it was under 4 µg/mL; with P. aerug. Ps296 VIM-2, under 4 µg/mL; with K.P. A-1797 KPC-2 VIM-4, 8 to 32 µg/mL; in the experiment with S. aureus MSSA-7 PC-1, under 4 µg/mL.

`O=C(C[C@H]1CC[C@H](NCCNC2CCCC2)CC1)N[C@H]1Cc2cccc(C(=O)O)c2OB1O` [Example 73, (R)-3-(2-(trans-4-(2-(cyclopentylamino)ethylamino)cyclohexyl)acetamido)-2-hydroxy-3,4-dihydro-2H-benzo[e][1,2]oxaborinine-8-carboxylic acid]: the MIC in the experiment on E. coli ESBL4 CTX-M-15, in the experiment on E. cl 144200 p99 AmpC, with K.P. 156319 KPC-3, in the experiment on P. aerug. Ps296 VIM-2, with K.P. A-1797 KPC-2 VIM-4 and with S. aureus MSSA-7 PC-1 was under 4 µg/mL each time.

With `O=C(C[C@H]1CC[C@H](NCCNCC2CC2)CC1)N[C@H]1Cc2cccc(C(=O)O)c2OB1O` [Example 74, (R)-3-(2-(trans-4-(2-(cyclopropylmethylamino)ethylamino)cyclohexyl)acetamido)-2-hydroxy-3,4-dihydro-2H-benzo[e][1,2]oxaborinine-8-carboxylic acid], the MIC with E. coli ESBL4 CTX-M-15, in the experiment with E. cl 144200 p99 AmpC, in the experiment with K.P. 156319 KPC-3, in the experiment on P. aerug. Ps296 VIM-2, with K.P. A-1797 KPC-2 VIM-4 and with S. aureus MSSA-7 PC-1 was under 4 µg/mL in each case.

In the case of `O=C(C[C@H]1CC[C@H](NCCN(CC2CC2)CC2CC2)CC1)N[C@H]1Cc2cccc(C(=O)O)c2OB1O` [Example 75, (R)-3-(2-(trans-4-(2-(bis(cyclopropylmethyl)amino)ethylamino)cyclohexyl)acetamido)-2-hydroxy-3,4-dihydro-2H-benzo[e][1,2]oxaborinine-8-carboxylic acid], the MIC with E. coli ESBL4 CTX-M-15, with E. cl 144200 p99 AmpC, with K.P. 156319 KPC-3, in the experiment with P. aerug. Ps296 VIM-2, in the experiment with K.P. A-1797 KPC-2 VIM-4 and in the experiment on S. aureus MSSA-7 PC-1 was under 4 µg/mL throughout.

Turning to `NCCC(N)[C@H]1CC[C@H](CC(=O)N[C@H]2Cc3cccc(C(=O)O)c3OB2O)CC1` (stereo partly drawn) [Example 76, (R)-3-(2-(trans-4-(1,3-diaminopropyl)cyclohexyl)acetamido)-2-hydroxy-3,4-dihydro-2H-benzo[e][1,2]oxaborinine-8-carboxylic acid], the MIC with E. coli ESBL4 CTX-M-15 is under 4 µg/mL; with E. cl 144200 p99 AmpC, under 4 µg/mL; in the experiment with K.P. 156319 KPC-3, under 4 µg/mL; with P. aerug. Ps296 VIM-2, 8 to 32 µg/mL; in the experiment on K.P. A-1797 KPC-2 VIM-4 it was under 4 µg/mL; in the experiment with S. aureus MSSA-7 PC-1, under 4 µg/mL.

Regarding `NCC(N)[C@H]1CC[C@H](CC(=O)N[C@H]2Cc3cccc(C(=O)O)c3OB2O)CC1` (stereo partly drawn) [Example 77, (R)-3-(2-(trans-4-(1,2-diaminoethyl)cyclohexyl)acetamido)-2-hydroxy-3,4-dihydro-2H-benzo[e][1,2]oxaborinine-8-carboxylic acid], the MIC with E. coli ESBL4 CTX-M-15 is under 4 µg/mL; in the experiment with E. cl 144200 p99 AmpC, under 4 µg/mL; with K.P. 156319 KPC-3 it was under 4 µg/mL; in the experiment on P. aerug. Ps296 VIM-2, under 4 µg/mL; in the experiment on K.P. A-1797 KPC-2 VIM-4, 8 to 32 µg/mL; in the experiment on S. aureus MSSA-7 PC-1, under 4 µg/mL.

Consider `CCNCCN[C@H]1CC[C@H](CC(=O)N[C@H]2Cc3cccc(C(=O)O)c3OB2O)CC1` [Example 78, (R)-3-(2-(trans-4-(2-(ethylamino)ethylamino)cyclohexyl)acetamido)-2-hydroxy-3,4-dihydro-2H-benzo[e][1,2]oxaborinine-8-carboxylic acid], for which the minimum inhibitory concentration (MIC) with E. coli ESBL4 CTX-M-15, in the experiment on E. cl 144200 p99 AmpC, with K.P. 156319 KPC-3, in the experiment on P. aerug. Ps296 VIM-2, with K.P. A-1797 KPC-2 VIM-4 and in the experiment with S. aureus MSSA-7 PC-1 was under 4 µg/mL each time.
